Results published in patent publication US20100155657A1, “AQUEOUS COMPOSITION CONTAINING FLUORINATED SULFONAMIDE AND SULFONAMIDATE COMPOUNDS” (3M Innovative Properties Company, priority 2008, published 2010).

Tests used:
[1] = calculated neutralization equilibrium constant Kn for deprotonation of sulfonamide with ammonia; format: physicochemical; conditions: for Kn: RfSO2NHX + NH3 -> RfSO2N(-)X + NH4+, pKa of ammonium 9.24 at 25 °C; for K(RfSO2NHX): acid dissociation constant of the sulfonamide, from pKa
Method: The equilibrium between a sulfonamide and its conjugate sulfamidate anion is determined by the both the pKa of the sulfonamide and the pKb (i.e., the pKa of the conjugate acid of the base).
NH3+RfSO2NHX→NH4^++RfSO2N^(−)X
The neutralization equilibrium constant Kn can be expressed as
Kn can also be expressed as: […]

[2] = determined experimentally

## O=S(=O)(NCCO)C(F)(F)C(F)(F)C(F)(F)C(F)(F)F [X = CH2CH2OH, CF3CF2CF2CF2SO2NHCH2CH2OH]
[1]
  Kn: 467
  K(RfSO2NHX): 2.69 × 10^−7

## CCNS(=O)(=O)C(F)(F)C(F)(F)C(F)(F)C(F)(F)F [X = CH2CH3]
[2]
  pKa: 8.15

## CNS(=O)(=O)C(F)(F)C(F)(F)C(F)(F)C(F)(F)F [X = CH3, CF3CF2CF2CF2SO2NHCH3]
[1]
  Kn: 52
  K(RfSO2NHX): 3.01 × 10^−8

## NS(=O)(=O)C(F)(F)C(F)(F)C(F)(F)C(F)(F)F [X = H, CF3CF2CF2CF2SO2NH2]
[1]
  Kn: 1800
  K(RfSO2NHX): 1.05 × 10^−6
